Like-named read-outs stand apart in the source and are kept apart here.
Key:
[1] = test system: osteoarthritis-induced New Zealand white rabbits; experiment: Nitric oxide levels in synovial fluids (Griess reaction); assay type: in vivo
From the text: (§1) To prepare an osteoarthritis animal model, New Zealand white rabbits underwent anterior cruciate ligament transection (ACLT) in joints of their two hind legs. After three days, the rabbits were forced to sustain movement for four weeks in a space of 5×5 m^3 to induce substantial osteoarthritis. […] The following Examples 3 to 10 were all performed using joints of the osteoarthritis-induced New Zealand white rabbits prepared as in this Example 2.
A synovial fluid and a Griess reagent were mixed at a ratio of 1:1 (100 μl: 100 μl) and allowed to stand at room temperature for 10 min, and absorbance was measured at 540 nm using a spectrophotometer (Power Wave X340, Bio-Tek). The Griess reagent was prepared in a final volume of 10 ml using 0.1 g of sulfanilamide (S9251, Sigma), 0.5 ml of phosphoric acid (P6560, Sigma) and 0.01 g of N-naphthyl-diamine-H-chloride (102397, ICN). A quantitative curve for nitrite was obtained using sodium nitrite (S2252, Sigma).

[2] = test system: osteoarthritis-induced New Zealand white rabbits; experiment: Total joint synovial fluid volume (Arsenazo III) in osteoarthritis-induced rabbits; assay type: in vivo
From the text: as §1
Typically, synovial fluid volume increases with inflammation as osteoarthritis progresses. […] The supernatants were used in this test.
Since synovial fluid volume has been reported to change according to the progress of osteoarthritis, total synovial fluid volume was measured to investigate changes in synovial fluids according to osteoarthritis induction and drug treatment. Synovial fluid volume was determined by measuring Ca^2+ concentrations in synovial fluids using an Arsenazo III complexion method (Michaylova V. et al., Anal. Chim. Acta, 53:194 (1971)). Total synovial fluid volume was calculated using a Donnan equilibrium equation. 0.01 ml of a synovial fluid was mixed with 1 ml of an Arsenazo III reagent (588-3, Sigma) and allowed to stand at room temperature for 5 min. Absorbance was measured at 600 nm using a spectrophotometer (DU650, Beckman).

[3] = test system: chondrocytes isolated from the cartilage of New Zealand white rabbits; experiment: cells; assay type: cell-based; settings: Oryctolagus cuniculus, Chondrocyte, read-out: IC50 values for apigenin on chondrocytes
Description: During culturing, on Days 1, 2, 4 and 6, IC50 values were measured by a MTT assay based on cell viability.

[4] = test system: osteoarthritis-induced New Zealand white rabbits; experiment: Collagen levels in joint synovial fluids (Sirius Red staining); assay type: in vivo
From the text: as §1
Total collagen levels in synovial fluids were measured by Sirius Red staining (Heide T. R. et al., Histochem. […]. Then, total collagen levels were determined by measuring absorbance at 550 nm. A standard curve was obtained by measuring absorbance at 550 nm for collagen type I (C1188, Sigma) of various concentrations of 0, 100, 200, 300, 400 and 500 μg. Using the standard curve, collagen levels in synovial fluids were determined.

[5] = test system: osteoarthritis-induced New Zealand white rabbits; experiment: Mankin's scoring of joints; assay type: in vivo; settings: after osteoarthritis induction, scale 0 to 14; control group 12.5
Description: In histological tests, degenerative changes, such as structural changes of cartilage, cell number changes in cartilage and surface staining distribution by cartilage staining with a dye, were evaluated according to a standard scoring system for the progress of osteoarthritis, Mankin's scoring (Mankin, H. J. et al., Orthopedic Clinics of North America, 2:19-30 (1971)). In the present invention, blind tests were performed by two inspectors according to the Mankin's criteria.
To prepare an osteoarthritis animal model, New Zealand white rabbits underwent anterior cruciate ligament transection (ACLT) in joints of their two hind legs. After three days, the rabbits were forced to sustain movement for four weeks in a space of 5×5 m^3 to induce substantial osteoarthritis. […]
30-mm synovial tissues were sectioned from the medial parapatella synovium of knee joints of experimental animals, fixed with 10% […] (F0507, Sigma) for over 24 hrs, and embedded in paraffin to make 4-mm paraffin blocks. […] Mankin's scoring was performed by blind tests carried out by two inspectors, and Mankin scores were determined according to the degree of degenerative progress and ranged from 0 (normal in all items) to a maximum score of 14, thus calculating a degenerative change index.

[6] = test system: RAW 264.7 cells; experiment: LPS-induced prostaglandin E2 production of macrophages (immunoassay); assay type: cell-based, mice; settings: LPS alone 4156, non-treated 71
Description: A macrophage cell line derived from mice, RAW 264.7 (KCLB 40071), was purchased from the Korean Cell Line Bank. RAW 264.7 cells were seeded in a density of 3×10^6 cells onto 60-mm culture dishes containing DMEM (Dulbecco's Modified Eagle Medium, 12800-017, Gibco) supplemented with 10% FBS (fetal bovine serum, 26140-079, Gibco), 100 U/ml of penicillin and 100 μg/ml streptomycin (15140-122, Gibco), and cultured at 37° C. under 5% CO2 and humidity for 24 hrs. To induce NO production, RAW 264.7 cells were treated with 500 ng/ml of an E. coli cell wall component, lipopolysaccharide (LPS, […], Sigma). […] Herein, LPS was dissolved in distilled water, and apigenin was dissolved in DMSO. Then, the culture medium and a Griess reagent were mixed at a ratio of 1:1 (100 μl: 100 μl) and allowed to stand at room temperature for 10 min. Thereafter, absorbance was measured at 540 nm using a spectrophotometer (Power Wave X340, Bio-Tek). RAW 264.7 cells were treated under the same conditions as in Example 12. PGE2 levels were measured using a PGE2 immunoassay kit (DE0100, R&D Systems). 100 μl of a culture medium was allowed to react with 50 μl of a conjugate and 50 μl of an antibody in the kit for two hours, and was then allowed to react with 200 μl of a developing reagent, pNPP, for one hour. Thereafter, absorbance was measured at 405 nm using a spectrophotometer (Power Wave X340, Bio-Tek).

[7] = apigenin-treated right leg (+), four weeks after drug injection
[8] = apigenin-treated right leg (+), four weeks after drug injection, listed as Apigenin
[9] = apigenin-treated right leg (+), two weeks after drug injection
[10] = non-treated left leg (−) of apigenin treatment group, four weeks after drug injection
[11] = non-treated left leg (−) of apigenin treatment group, two weeks after drug injection
[12] = non-treated left leg (−) of apigenin treatment group, four weeks after drug injection, listed as Apigenin

O=c1cc(-c2ccc(O)cc2)oc2cc(O)cc(O)c12 [apigenin, 4′,5,7-trihydroxyflavone]
NO levels in synovial fluids [1, 7]: about 6.01 μM | NO levels in synovial fluids [1, 8]: 6.01 ± 0.88 µM | NO levels in synovial fluids [1, 9]: 7.53 ± 4.66 µM | NO levels in synovial fluids [1, 10]: 5.5 ± 4.59 µM | NO levels in synovial fluids [1, 11]: 0.65 ± 0.06 µM | Total synovial fluid volume ([2]; apigenin-treated right leg (+), 50 μg once per week, four weeks after drug injection): about 1.16 ml | Total synovial fluid volume ([2]; apigenin-treated right leg (+), 50 μg once per week, four weeks after drug injection, listed as Apigenin): 1.16 ± 0.03 mL | Total synovial fluid volume ([2]; apigenin-treated right leg (+), 50 μg once per week, two weeks after drug injection): 1.13 ± 0.08 mL | Total synovial fluid volume [2, 10]: about 1.58 ml | Total synovial fluid volume [2, 12]: 1.58 ± 0.24 mL | Total synovial fluid volume [2, 11]: 1.17 ± 0.08 mL | IC50 ([3]; 24 h): ~200 µM | IC50 ([3]; 48 h): ~100 µM | IC50 ([3]; 96 h): ~40 µM | IC50 ([3]; 144 h): ~30 µM | Collagen levels in joint synovial fluids [4, 7]: 406.56 µg/mL | Collagen levels in joint synovial fluids [4, 8]: 406.6 ± 0.63 µg/mL | Collagen levels in joint synovial fluids [4, 9]: 397.4 ± 0.69 µg/mL | Collagen levels in joint synovial fluids [4, 10]: about 1019.2 μg/ml | Collagen levels in joint synovial fluids [4, 12]: 1019.2 ± 0.79 µg/mL | Collagen levels in joint synovial fluids [4, 11]: 749.4 ± 0.46 µg/mL | Mankin score (mean) [5]: 6.6 | PGE2 ([6]; LPS 500 ng/ml + apigenin 10 μM): 3935 pg/mL | PGE2 ([6]; LPS 500 ng/ml + apigenin 20 μM): 3918 pg/mL | PGE2 ([6]; LPS 500 ng/ml + apigenin 40 μM): 1057 pg/mL | PGE2 ([6]; LPS 500 ng/ml + apigenin 80 μM): 300 pg/mL
